Data set [1] relates to breast cancer (MCF-7) cell line. The data set can be described thus: cells. Particulars: Homo sapiens, MCF7, read-out: Antiproliferative activity IC50 ± SEM, MCF-7.
The nature of the next data set: Cell viability assay. It counts as cell-based. As to conditions: human, MCF-10A normal mammary gland epithelial cells.
Data set [2] concerns lung cancer (A-549) cell line. The data set can be described thus: cells. As to conditions: Homo sapiens, A549, read-out: Antiproliferative activity IC50 ± SEM, A-549.
In data set [3] the test system is colon cancer (HT-29) cell line. The data set can be described thus: cells. Particulars: Homo sapiens, HT-29, read-out: Antiproliferative activity IC50 ± SEM, HT-29.
Data set [4] has as its system pancreatic cancer (Panc-1) cell line. The data set can be described thus: cells. Particulars: Homo sapiens, PANC-1, read-out: Antiproliferative activity IC50 ± SEM, Panc-1.
Data set [5] deals with four cancer cell lines (A-549, MCF-7, Panc-1, HT-29). The data set can be described thus: Antiproliferative assay, average over the four cancer cell lines. As to conditions: for fold less potent than the reference Erlotinib (GI50): GI50 ratio vs Erlotinib.
Another data set has as its target EGFR (Homo sapiens, UniProt P00533). The data set can be described thus: EGFR inhibitory assay. It counts as biochemical.
The target in a further data set is VEGFR-2 (Homo sapiens, UniProt P35968). The data set can be described thus: VEGFR-2 inhibitory assay. Format: biochemical. As to conditions: VEGFR-2 inhibition IC50 ± SEM.
VEGFR-2, sequence (P35968 20-1356): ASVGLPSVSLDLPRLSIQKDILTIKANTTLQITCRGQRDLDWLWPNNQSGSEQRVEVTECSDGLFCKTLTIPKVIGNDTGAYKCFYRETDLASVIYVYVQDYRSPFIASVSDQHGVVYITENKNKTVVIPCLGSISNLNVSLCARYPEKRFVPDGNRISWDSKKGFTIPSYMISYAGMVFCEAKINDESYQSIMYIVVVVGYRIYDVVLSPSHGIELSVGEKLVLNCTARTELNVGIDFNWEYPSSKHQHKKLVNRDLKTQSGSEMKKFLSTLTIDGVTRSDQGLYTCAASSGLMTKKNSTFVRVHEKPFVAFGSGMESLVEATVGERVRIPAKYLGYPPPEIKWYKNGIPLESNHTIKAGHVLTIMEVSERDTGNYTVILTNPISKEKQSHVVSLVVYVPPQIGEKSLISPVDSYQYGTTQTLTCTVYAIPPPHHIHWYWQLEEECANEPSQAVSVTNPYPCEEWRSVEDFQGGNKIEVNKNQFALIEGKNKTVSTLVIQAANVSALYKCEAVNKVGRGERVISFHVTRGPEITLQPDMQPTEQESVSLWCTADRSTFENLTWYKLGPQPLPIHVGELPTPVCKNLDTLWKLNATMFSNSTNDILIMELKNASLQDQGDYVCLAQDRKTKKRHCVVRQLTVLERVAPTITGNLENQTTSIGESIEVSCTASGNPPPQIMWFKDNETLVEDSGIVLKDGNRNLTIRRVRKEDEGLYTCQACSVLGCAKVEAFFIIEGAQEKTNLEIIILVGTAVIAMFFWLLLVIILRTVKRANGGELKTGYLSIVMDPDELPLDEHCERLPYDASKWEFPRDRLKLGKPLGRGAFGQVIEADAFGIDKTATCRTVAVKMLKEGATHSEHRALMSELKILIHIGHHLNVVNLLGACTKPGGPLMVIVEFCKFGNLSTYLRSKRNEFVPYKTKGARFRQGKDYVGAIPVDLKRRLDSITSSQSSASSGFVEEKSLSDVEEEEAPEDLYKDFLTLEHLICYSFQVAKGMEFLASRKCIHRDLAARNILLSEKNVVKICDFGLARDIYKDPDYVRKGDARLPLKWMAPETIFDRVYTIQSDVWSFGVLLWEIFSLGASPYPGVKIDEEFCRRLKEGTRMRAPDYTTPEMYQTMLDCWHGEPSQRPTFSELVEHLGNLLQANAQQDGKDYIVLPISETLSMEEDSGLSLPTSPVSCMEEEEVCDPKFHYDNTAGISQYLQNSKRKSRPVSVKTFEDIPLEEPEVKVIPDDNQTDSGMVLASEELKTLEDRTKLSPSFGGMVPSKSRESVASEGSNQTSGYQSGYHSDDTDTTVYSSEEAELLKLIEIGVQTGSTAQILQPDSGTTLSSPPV
The subject of the next data set is Caspase-3. The data set can be described thus: Caspase-3 activation assay. It counts as cell-based, human. Particulars: A-594 cancer cell line; for Caspase-3 Fold change: vs untreated control cells.
In the next data set the test system is Caspase-8. The data set can be described thus: Caspase-8 level assay. Particulars: A-594 cancer cell line; for Caspase-8 Fold change: vs untreated control. Format: cell-based, human.
For the next data set, the system named is Bcl-2. The data set can be described thus: Bcl-2 level assay. Particulars: A-594 cancer cell line; for Bcl-2 Fold reduction: vs untreated control. Format: cell-based, human.
Another data set concerns Bax. The data set can be described thus: Bax level assay. It counts as cell-based, human. As to conditions: A-594 cancer cell line; for Bax Fold change: vs untreated control.
The test system of data set [6] is panel of four cancer cell lines. As to conditions: read-out: GI50 against four cancer cell lines; cited from earlier work.

These results are taken from article PMC10854447 (Journal of Enzyme Inhibition and Medicinal Chemistry, 2024).

EGFR, sequence (P00533 669-1210): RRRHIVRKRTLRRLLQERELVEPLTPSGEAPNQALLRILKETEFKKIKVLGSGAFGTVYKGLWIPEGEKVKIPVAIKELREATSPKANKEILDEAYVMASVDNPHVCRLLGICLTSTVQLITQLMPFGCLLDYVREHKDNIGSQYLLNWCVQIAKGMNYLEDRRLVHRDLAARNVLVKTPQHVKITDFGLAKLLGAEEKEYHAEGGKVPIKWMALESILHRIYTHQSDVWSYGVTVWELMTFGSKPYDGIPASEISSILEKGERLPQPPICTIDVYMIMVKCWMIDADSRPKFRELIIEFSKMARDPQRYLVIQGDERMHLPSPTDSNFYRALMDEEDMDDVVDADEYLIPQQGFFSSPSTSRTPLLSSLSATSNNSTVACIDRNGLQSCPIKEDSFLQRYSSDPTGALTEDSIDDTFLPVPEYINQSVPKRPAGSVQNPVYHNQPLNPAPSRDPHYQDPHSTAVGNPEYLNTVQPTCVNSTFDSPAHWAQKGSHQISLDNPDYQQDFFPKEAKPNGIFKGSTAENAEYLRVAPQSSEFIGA

As to `c1ccc(-c2cn(Cc3nc(-c4ccccc4)no3)nn2)cc1` [Compound 7a, 3-Phenyl-5-[(4-phenyl-1H-1,2,3-triazol-1-yl)methyl]-1,2,4-oxadiazole], the IC50 stood at 98 ± 9 nM in [1], 94 ± 9 nM in [2], 96 ± 9 nM in [3] and 96 ± 9 nM in [4]. In addition, in “Cell viability assay”, the viability at 4 days, 50 µM stood at 90%. Also, the “fold less potent than the reference Erlotinib (GI50)” value in data set [5] is on record as 3 fold.
With `Fc1ccc(-c2noc(Cn3cc(-c4ccccc4)nn3)n2)cc1` [Compound 7b, 3-(4-Fluorophenyl)-5-[(4-phenyl-1H-1,2,3-triazol-1-yl)methyl]-1,2,4-oxadiazole], the IC50 in data set [1] is 106 ± 10 nM; in data set [2], 102 ± 10 nM; in data set [3], 104 ± 10 nM; in [4], 104 ± 10 nM. In the data set “Cell viability assay”, this compound yielded a viability at 4 days, 50 µM of 91%. The “fold less active than the 3-halo-substituted derivatives 7i and 7h (GI50)” value in [5] (GI50 ratio vs 7i and 7h) worked out at 2.5 fold.
With `Clc1ccc(-c2noc(Cn3cc(-c4ccccc4)nn3)n2)cc1` [Compound 7c, 3-(4-Chlorophenyl)-5-[(4-phenyl-1H-1,2,3-triazol-1-yl)methyl]-1,2,4-oxadiazole], the IC50 in data set [1] was 94 ± 9 nM; in data set [2] it was 87 ± 8 nM; in [3], 92 ± 9 nM; in data set [4], 90 ± 9 nM. Moreover, the viability at 4 days, 50 µM in “Cell viability assay” came to 89%.
For `Brc1ccc(-c2noc(Cn3cc(-c4ccccc4)nn3)n2)cc1` [Compound 7d, 3-(4-Bromophenyl)-5-[(4-phenyl-1H-1,2,3-triazol-1-yl)methyl]-1,2,4-oxadiazole] the same measures were 84 ± 8 nM, 80 ± 8 nM, 82 ± 8 nM, 80 ± 8 nM and 88%.
As to `Cc1ccc(-c2noc(Cn3cc(-c4ccccc4)nn3)n2)cc1` [Compound 7e, 3-(4-Methylphenyl)-5-[(4-phenyl-1H-1,2,3-triazol-1-yl)methyl]-1,2,4-oxadiazole], the half-inhibitory concentration (IC50) in data set [1] was found to be 102 ± 9 nM; in data set [2] it was 98 ± 9 nM; in data set [3], 102 ± 10 nM; in data set [4] it was 100 ± 10 nM. For the same compound, the viability at 4 days, 50 µM in the data set “Cell viability assay” was 91%. For the same compound, in [5], the “fold less potent than the reference Erlotinib (GI50)” value came out at 3 fold.
Consider `COc1ccc(-c2noc(Cn3cc(-c4ccccc4)nn3)n2)cc1` [Compound 7f, 3-(4-Methoxyphenyl)-5-[(4-phenyl-1H-1,2,3-triazol-1-yl)methyl]-1,2,4-oxadiazole], for which the 50% inhibitory concentration (IC50) in data set [1] stood at 51 ± 5 nM; in [2], 48 ± 4 nM; in [3], 46 ± 4 nM; in data set [4], 48 ± 4 nM. Besides, the viability at 4 days, 50 µM in the data set “Cell viability assay” was found to be 90%.
`FC(F)(F)c1ccc(-c2noc(Cn3cc(-c4ccccc4)nn3)n2)cc1` [Compound 7g, 3-(4-Trifluoromethylphenyl)-5-[(4-phenyl-1H-1,2,3-triazol-1-yl)methyl]-1,2,4-oxadiazole]: the IC50 came out at 68 ± 6 nM in [1], 66 ± 6 nM in [2], 66 ± 6 nM in data set [3] and 68 ± 6 nM in data set [4]. The compound further came in with a viability at 4 days, 50 µM in the data set “Cell viability assay” of 87%.
As for `Clc1cccc(-c2noc(Cn3cc(-c4ccccc4)nn3)n2)c1` [Compound 7h, 3-(3-Chlorophenyl)-5-[(4-phenyl-1H-1,2,3-triazol-1-yl)methyl]-1,2,4-oxadiazole], the IC50 in data set [1] came out at 44 ± 4 nM; in data set [2], 40 ± 4 nM; in [3] it was 42 ± 4 nM; on EGFR, 105 ± 10 nM; in [4] it was 40 ± 4 nM; against VEGFR-2 it was 6.9 ± 0.07 nM. In “Cell viability assay”, the viability at 4 days, 50 µM stood at 90%.
`Brc1cccc(-c2noc(Cn3cc(-c4ccccc4)nn3)n2)c1` [Compound 7i, 3-(3-Bromophenyl)-5-[(4-phenyl-1H-1,2,3-triazol-1-yl)methyl]-1,2,4-oxadiazole]: the 50% inhibitory concentration (IC50) was 39 ± 3 nM in [1]; 36 ± 3 nM in data set [2]; 37 ± 3 nM in data set [3]; 97 ± 9 nM against EGFR; 37 ± 3 nM in [4]; 5.5 ± 0.05 nM on VEGFR-2. Moreover, in the data set “Cell viability assay”, the viability at 4 days, 50 µM is 89%.
With `Clc1ccc(-c2noc(Cn3cc(-c4ccccc4)nn3)n2)c(Cl)c1` [Compound 7j, 3-(2,4-Dichlorophenyl)-5-[(4-phenyl-1H-1,2,3-triazol-1-yl)methyl]-1,2,4-oxadiazole], the IC50 worked out at 36 ± 3 nM in data set [1]; 33 ± 3 nM in data set [2]; 36 ± 3 nM in [3]; 89 ± 8 nM against EGFR; 34 ± 3 nM in [4]; 4.7 ± 0.04 nM on VEGFR-2. In “Cell viability assay”, the viability at 4 days, 50 µM was found to be 91%. Besides, in the data set with Caspase-3, the “Caspase-3 Conc” value amounted to 460 ± 4 pg/mL. For the same compound, in the data set on Caspase-3, the “Caspase-3 Fold change” value was found to be 7.0. For the same compound, the “Caspase-8 Conc” value with Caspase-8 stood at 2.00 ng/mL. Also, the “Caspase-8 Fold change” value in the data set with Caspase-8 was found to be 22. Besides, in the data set with Bcl-2, the “Bcl-2 Conc” value came to 0.95 ng/mL. The “Bcl-2 Fold reduction” value with Bcl-2 is 5. Also, the “Bax Conc” value in the data set with Bax turned out to be 291 pg/mL. The “Bax Fold change” value in the data set with Bax worked out at 32.
Take `COc1ccc(-c2noc(Cn3cc(-c4ccccc4)nn3)n2)cc1OC` [Compound 7k, 3-(3,4-Dimethoxyphenyl)-5-[(4-phenyl-1H-1,2,3-triazol-1-yl)methyl]-1,2,4-oxadiazole]: the concentration for half-maximal inhibition (IC50) in [1] came out at 35 ± 3 nM; in [2] it was 30 ± 3 nM; in [3] it was 32 ± 3 nM; on EGFR, 82 ± 7 nM; in data set [4] it was 32 ± 3 nM; against VEGFR-2, 3.8 ± 0.03 nM. This compound displayed a viability at 4 days, 50 µM in “Cell viability assay” of 89%. For the same compound, the “Caspase-3 Conc” value with Caspase-3 was determined as 530 ± 5 pg/mL. For the same compound, the “Caspase-3 Fold change” value in the data set with Caspase-3 was 8. Also, the “Caspase-8 Conc” value in the data set with Caspase-8 came out at 2.30 ng/mL. Further, the “Caspase-8 Fold change” value in the data set on Caspase-8 was 25. Further, the “Bcl-2 Conc” value in the data set on Bcl-2 amounted to 0.80 ng/mL. In the data set with Bcl-2, the “Bcl-2 Fold reduction” value amounted to 6. In addition, the “Bax Conc” value in the data set with Bax was 310 pg/mL. The “Bax Fold change” value in the data set on Bax was found to be 34.
Turning to `COc1cc(-c2noc(Cn3cc(-c4ccccc4)nn3)n2)cc(OC)c1OC` [Compound 7l, 3-(3,4,5-Trimethoxyphenyl)-5-[(4-phenyl-1H-1,2,3-triazol-1-yl)methyl]-1,2,4-oxadiazole], in data set [1], the half-maximal inhibitory concentration (IC50) stood at 30 ± 3 nM. In addition, in the data set “Cell viability assay”, the viability at 4 days, 50 µM amounted to 88%. In addition, the IC50 in [2] was found to be 26 ± 2 nM. Besides, in the data set with Caspase-3, the “Caspase-3 Conc” value was 587 ± 5 pg/mL and the “Caspase-3 Fold change” value came to 9. In addition, the half-maximal inhibitory concentration (IC50) in [3] is 28 ± 2 nM. In data set [4], the half-maximal inhibitory concentration (IC50) was found to be 28 ± 2 nM. The 50% inhibitory concentration (IC50) on VEGFR-2 stood at 4.7 nM. For the same compound, in the data set on Caspase-8, the “Caspase-8 Conc” value is 2.55 ng/mL and the “Caspase-8 Fold change” value stood at 28. Moreover, in the data set on Bcl-2, the “Bcl-2 Conc” value came to 0.60 ng/mL and the “Bcl-2 Fold reduction” value is on record as 8. Also, in the data set with Bax, the “Bax Conc” value worked out at 362 pg/mL and the “Bax Fold change” value was found to be 40.
Regarding `c1ccc(-c2cn(Cc3nc(-c4cccc5ccccc45)no3)nn2)cc1` [Compound 7m, 3-(Naphthalen-1-yl)-5-[(4-phenyl-1H-1,2,3-triazol-1-yl)methyl]-1,2,4-oxadiazole], the IC50 stood at 48 ± 4 nM in data set [1], 42 ± 4 nM in data set [2], 44 ± 4 nM in data set [3] and 46 ± 4 nM in data set [4]. This compound gave a viability at 4 days, 50 µM in the data set “Cell viability assay” of 87%. Also, the “fold less potent than the reference Erlotinib (GI50)” value in [5] is given as 1.4 fold.
Take `c1ccc(-c2cn(Cc3nc(-c4ccc5ccccc5c4)no3)nn2)cc1` [Compound 7n, 3-(Naphthalen-2-yl)-5-[(4-phenyl-1H-1,2,3-triazol-1-yl)methyl]-1,2,4-oxadiazole]: the IC50 was 74 ± 7 nM in data set [1], 68 ± 6 nM in [2], 72 ± 7 nM in data set [3] and 70 ± 7 nM in data set [4]. The compound further showed a viability at 4 days, 50 µM in “Cell viability assay” of 89%. In addition, the “fold less potent than the 1-naphthyl derivative 7m (GI50)” value in [5] (GI50 ratio vs 7m) was 1.7 fold. Moreover, the “fold less potent than the reference Erlotinib (GI50)” value in data set [5] amounted to 2.4 fold.
For the compound `c1ccc(-c2cn(Cc3nc(-c4ccc5c(c4)OCO5)no3)nn2)cc1` [Compound 7o, 3-(2H-1,3-Benzodioxol-5-yl)-5-[(4-phenyl-1H-1,2,3-triazol-1-yl)methyl]-1,2,4-oxadiazole], the IC50 in data set [1] came to 80 ± 8 nM; in [2] it was 74 ± 7 nM; in [3], 76 ± 7 nM; in [4], 78 ± 7 nM. In addition, the viability at 4 days, 50 µM in “Cell viability assay” worked out at 91%.
As for `C#Cc1cccc(Nc2ncnc3cc(OCCOC)c(OCCOC)cc23)c1` [Erlotinib, reference compound], the IC50 turned out to be 40 ± 3 nM in [1], 30 ± 3 nM in [2], 30 ± 3 nM in data set [3] and 30 ± 3 nM in data set [4]. Moreover, the GI50 in data set [6] is 33 nM.
On to `CN[C@@H]1C[C@H]2O[C@@](C)([C@@H]1OC)n1c3ccccc3c3c4c(c5c6ccccc6n2c5c31)C(=O)NC4` [Staurosporine, reference compound], for which, in the data set on Caspase-3, the “Caspase-3 Conc” value is 465 ± 4 pg/mL. The “Bcl-2 Conc” value in the data set on Bcl-2 is 1.00 ng/mL. Moreover, the “Bax Conc” value in the data set with Bax was 288 pg/mL.

Broadly, the IC50 is the midpoint of a concentration-inhibition curve. One may read the viability as the share of living cells, or the viability signal relative to a control. A lower viability goes with a greater loss of cells. Broadly, the GI50 is the concentration that inhibits growth by half.
